Our source for the pest or weed control and LC90 values is patent US9000162B2, “5,8-difluoro-4-(2-(4-(heteroaryloxy)-phenyl)ethylamino)quinazolines and their use as agrochemicals” (Dow AgroSciences LLC, priority 2008, dated 2015).

Holding throughout (format): in vivo
Assay [1] has as its system Pseudoperonospora cubensis (PSPECU). The assay is described as follows: Cucumber downy mildew foliar protectant test. Particulars: 200 ppm foliar, inoculated one day after treatment, read-out: Activity against fungal diseases PSPECU. The essentials: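 Cucumber seedlings, first true leaf 20-80% expanded, were sprayed to wetness with formulated compound and inoculated next day with aqueous sporangia suspension. Severity was converted to percent control versus untreated inoculated plants: ***=80-100%, **=50-79%, *=0-49%.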

Assay [2] relates to Magnaporthe grisea = Pyricularia oryzae (PYRIOR). Nature of the assay: whole plant or invertebrate. The settings on record: foliar, read-out: Activity against fungal diseases PYRIOR.
The test system of assay [3] is Puccinia recondita tritici (PUCCRT). The assay is described as follows: Leaf rust of wheat foliar protectant test. The settings on record: 200 ppm foliar, inoculated one day after treatment, read-out: Activity against fungal diseases PUCCRT. In short, it runs like this: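 Wheat seedlings (3–8 per pot) were sprayed to wet with formulated compound and inoculated the next day with an aqueous Puccinia recondita tritici spore suspension. Severity was converted to % control versus untreated inoculated plants and rated *** 80–100%, ** 50–79%, * 0–49%.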

Assay [4] deals with Septoria tritici (SEPTTR). The assay is described as follows: Septoria blotch of wheat foliar protectant test. The settings on record: Zymoseptoria tritici, read-out: Activity against fungal diseases SEPTTR; for pest or weed control at 200 ppm: 200 ppm foliar, inoculated one day after treatment; for pest or weed control at 25 ppm: foliar, Tested at 25 ppm (footnote b). In short, it runs like this:
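Wheat seedlings (3-10 per pot) were sprayed to wet with formulated compound and inoculated next day with Septoria tritici spores. Plants then had 1 day in a dark dew chamber and 3 days in a lighted one before greenhouse incubation. Severity versus untreated inoculated plants gave percent control, scored *** 80-100%, ** 50-79%, * 0-49%.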

Assay [5] relates to Colorado Potato Beetle (Leptinotarsa decemlineata, LPTNDE). The assay is described as follows: Colorado Potato Beetle larvae on sprayed tomato leaves. Particulars: foliar, 72 h, L2 larvae on sprayed tomato foliage, mortality after three days. As to the method:
Formulated test compounds were diluted and sprayed onto leaves of tomato plants. When dry, plant foliage was removed from the plant and placed in 8-well agar trays. Five L2 Colorado potato beetle larvae were placed in each well, and the trays were sealed and incubated at 26° C. Mortality was evaluated after three days.

Values after ≈ are worked out from the molar mass of the structure shown.

Take `Fc1ccc(F)c2c(NCCc3ccc(Oc4cc(C(F)(F)F)ccn4)c(Cl)c3)ncnc12` [Compound 90]: the pest or weed control at 200 ppm in assay [1], in assay [2], in assay [3] and in assay [4] was 80 to 100% in each case.
With `Fc1ccc(F)c2c(NCCc3ccc(Oc4cnccc4C(F)(F)F)c(Cl)c3)ncnc12` [Compound 91], the pest or weed control at 200 ppm in assay [1], in assay [2], in assay [3] and in assay [4] was 80 to 100% each time.
Take `Fc1ccc(F)c2c(NCCc3ccccc3)ncnc12` [Compound 94]: the pest or weed control at 200 ppm lay within 80 to 100% in assay [1], 0 to 49% in assay [2], 80 to 100% in assay [3] and 50 to 79% in assay [4].
As for `Fc1ccc(F)c2c(NCCc3ccc(Oc4c(Cl)cnc(C(F)(F)F)c4Cl)cc3)ncnc12` [Compound 95], the pest or weed control at 200 ppm in assay [1], in assay [2], in assay [3] and in assay [4] was 80 to 100% in each case.
As to `Fc1ccc(F)c2c(NCCc3ccc(Oc4ccnc(C(F)(F)F)c4Cl)cc3)ncnc12` [Compound 96], the pest or weed control at 200 ppm in assay [1], in assay [2], in assay [3] and in assay [4] was 80 to 100% each time.
As to `Nc1c(F)c(F)nc(Oc2ccc(CCNc3ncnc4c(F)ccc(F)c34)cc2)c1F` [Compound 97], the pest or weed control at 200 ppm was 80 to 100% in assay [1], 80 to 100% in assay [2], 80 to 100% in assay [3] and 50 to 79% in assay [4].
As for `COc1cc(CCNc2ncnc3c(F)ccc(F)c23)ccc1Oc1nc(F)c(F)c(N)c1F` [Compound 98], the pest or weed control at 200 ppm in assay [1] fell in the range of 80 to 100%; in assay [2], 80 to 100%; in assay [3] it was 80 to 100%; in assay [4], 0 to 49%.
For the compound `Cc1cc(CCNc2ncnc3c(F)ccc(F)c23)ccc1Oc1nc(F)c(F)c(N)c1F` [Compound 99], the pest or weed control at 200 ppm lay in the range of 80 to 100% in assay [1], 80 to 100% in assay [2], 80 to 100% in assay [3] and 0 to 49% in assay [4].
Take `Fc1nc(C(F)(F)F)nc(Oc2ccc(CCNc3ncnc4c(F)ccc(F)c34)cc2)c1F` [Compound 100]: the pest or weed control at 200 ppm in assay [1] lay in the range of 80 to 100%; in assay [2], 0 to 49%; in assay [3], 0 to 49%; in assay [4] it was 0 to 49%.
On to `COc1cc(CCNc2ncnc3c(F)ccc(F)c23)ccc1Oc1nc(C(F)(F)F)nc(F)c1F` [Compound 101], for which the pest or weed control at 200 ppm is 80 to 100% in assay [1], 0 to 49% in assay [2], 50 to 79% in assay [3] and 0 to 49% in assay [4].
For the compound `Oc1ccc2c(c1)CC(Nc1ncnc3c(F)ccc(F)c13)C2` (centres unmarked) [Compound 106], the pest or weed control at 200 ppm in assay [1] was in the range of 50 to 79%; in assay [2] it was 50 to 79%; in assay [3], 50 to 79%; in assay [4], 0 to 49%.
For `Fc1ccc(F)c2c(NCCc3ccc(Oc4ccnc(Cl)c4)cc3)ncnc12` [Compound 107], the pest or weed control at 200 ppm in assay [1], in assay [2] and in assay [3] was 80 to 100% each time. In addition, in assay [4], the pest or weed control at 25 ppm lay in the range of 80 to 100%.
Consider `COc1cc(CCNc2ncnc3c(F)ccc(F)c23)ccc1Oc1ccnc(Cl)c1` [Compound 108], for which the pest or weed control at 200 ppm in assay [1] is 0 to 49%; in assay [2] it was 0 to 49%; in assay [3] it was 80 to 100%; in assay [4] it was 80 to 100%.
With `Fc1ccc(F)c2c(NC3Cc4ccc(Oc5cc(C(F)(F)F)ccn5)cc4C3)ncnc12` (centres unmarked) [Compound 110], the pest or weed control at 200 ppm in assay [1], in assay [2], in assay [3] and in assay [4] was 80 to 100% throughout.
`Fc1ccc(F)c2c(NC3Cc4ccc(Oc5ccc(C(F)(F)F)cn5)cc4C3)ncnc12` (centres unmarked) [Compound 111]: the pest or weed control at 200 ppm in assay [1], in assay [2], in assay [3] and in assay [4] was 80 to 100% throughout.
For the compound `COc1cc(CCNc2ncnc3c(F)ccc(F)c23)ccc1Oc1cc(C(F)(F)F)ncn1` [Compound 112], the pest or weed control at 200 ppm in assay [1], in assay [2] and in assay [3] was 80 to 100% each time. Besides, the pest or weed control at 25 ppm in assay [4] was in the range of 80 to 100%.
Take `COc1cc(CCNc2ncnc3c(F)ccc(F)c23)ccc1Oc1ccnc(C(F)(F)F)n1` [Compound 113]: the pest or weed control at 200 ppm in assay [1], in assay [2] and in assay [3] was 80 to 100% throughout. Further, the pest or weed control at 25 ppm in assay [4] was 80 to 100%.
For `Fc1ccc(F)c2c(NCCc3ccc(Oc4ccnc(C(F)(F)F)n4)cc3)ncnc12` [Compound 114], the pest or weed control at 200 ppm in assay [1], in assay [2] and in assay [3] was 80 to 100% in each case. For the same compound, in assay [4], the pest or weed control at 25 ppm was 50 to 79%.
Regarding `Fc1cc(Oc2cc(C(F)(F)F)ncn2)ccc1CCNc1ncnc2c(F)ccc(F)c12` [Compound 116], the pest or weed control at 200 ppm in assay [1], in assay [2] and in assay [3] was 80 to 100% throughout. Moreover, the pest or weed control at 25 ppm in assay [4] is 80 to 100%.
`Cc1cc(CCNc2ncnc3c(F)ccc(F)c23)ccc1Oc1cc(C(F)(F)F)ncn1` [Compound 117]: the pest or weed control at 200 ppm in assay [1], in assay [2] and in assay [3] was 80 to 100% in each case. The pest or weed control at 25 ppm in assay [4] lay in the range of 80 to 100%.
In the case of `Cc1cc(Oc2cc(C(F)(F)F)ncn2)ccc1CCNc1ncnc2c(F)ccc(F)c12` [Compound 118], the pest or weed control at 200 ppm in assay [1], in assay [2] and in assay [3] was 80 to 100% in each case. In addition, the pest or weed control at 25 ppm in assay [4] is 80 to 100%.
On to `CC(Nc1ncnc2c(F)ccc(F)c12)c1ccccc1` (centres unmarked) [Compound 119], for which the pest or weed control at 200 ppm in assay [1], in assay [2], in assay [3] and in assay [4] was 80 to 100% throughout.
With `Fc1cc(Oc2ncc(C(F)(F)F)cc2F)ccc1CCNc1ncnc2c(F)ccc(F)c12` [Compound 122], the pest or weed control at 200 ppm in assay [1] is 80 to 100%; in assay [2], 50 to 79%; in assay [3], 80 to 100%. Moreover, the pest or weed control at 25 ppm in assay [4] lay within 80 to 100%.
Take `N#Cc1cc(Oc2ccc(CCNc3ncnc4c(F)ccc(F)c34)cc2)ncc1Cl` [Compound 126]: the pest or weed control at 200 ppm in assay [1], in assay [2] and in assay [3] was 80 to 100% each time. Also, in assay [4], the pest or weed control at 25 ppm is 80 to 100%.
For `Fc1ccc(F)c2c(NCCc3ccc(Oc4cc(Cl)ncn4)cc3)ncnc12` [Compound 127], the pest or weed control at 200 ppm is 80 to 100% in assay [1], 80 to 100% in assay [2], 80 to 100% in assay [3] and 0 to 49% in assay [4].
Regarding `N#Cc1c(Cl)cncc1Oc1ccc(CCNc2ncnc3c(F)ccc(F)c23)cc1` [Compound 129], the pest or weed control at 200 ppm lay within 80 to 100% in assay [1], 80 to 100% in assay [2], 80 to 100% in assay [3] and 50 to 79% in assay [4].
Consider `Fc1cc(CCNc2ncnc3c(F)ccc(F)c23)ccc1Oc1ccc(C(F)(F)F)cn1` [Compound 130], for which the pest or weed control at 200 ppm in assay [1], in assay [2], in assay [3] and in assay [4] was 80 to 100% each time.
For the compound `Fc1cc(CCNc2ncnc3c(F)ccc(F)c23)ccc1Oc1ncc(C(F)(F)F)cc1F` [Compound 131], the pest or weed control at 200 ppm in assay [1], in assay [2], in assay [3] and in assay [4] was 80 to 100% in each case.
`Fc1cc(CCNc2ncnc3c(F)ccc(F)c23)ccc1Oc1cc(C(F)(F)F)ncn1` [Compound 132]: the pest or weed control at 200 ppm in assay [1], in assay [2], in assay [3] and in assay [4] was 80 to 100% each time.
In the case of `Fc1cccc2c(NCCc3ccc(Oc4cc(C(F)(F)F)ccn4)cc3)ncnc12` [drawing 199, reference compound], in assay [5], the LC90 was in the range of 3.1 to 12.5 µg/mL (≈ 7.24 to 29.2 µM).
`Fc1cccc2c(NCCc3ccc(Oc4ccc(C(F)(F)F)cn4)cc3)ncnc12` [reference compound] registered an LC90 in assay [5] of 0.12 µg/mL (≈ 0.28 µM).
The same measure, in the same setting: as for `N#Cc1ccc(Oc2ccc(CCNc3ncnc4c(F)cccc34)cc2)nc1` [reference compound], the figure is under 3.1 µg/mL.
